Data on one compound can be found in patent US20250346550A1, “METHODS OF MODULATING ENDONUCLEASE G USING RESVERATROL AND ITS DERIVATIVES” (THE REGENTS OF THE UNIVERSITY OF COLORADO A BODY CORPORATE, priority 2022, published 2025).

The assay deals with cross-fertilized embryos with persistent uaDf5 paternal mitochondria (loss of lgg-1). Put plainly: embryonic lethality caused by persistent uaDf5 paternal mitochondria. The class given is in vivo, C. elegans. The conditions noted are these: 100 μM, males pretreated eight hours before mating, 25° C. The procedure:
FIG. 10. Trans-resveratrol reduces embryonic lethality through enhancing removal of mutant paternal mitochondria. The embryonic lethality rate was scored in cross-fertilized embryos from crosses of the indicated genotypes. Males were pretreated with either 0.5% ethanol (Mock) or […] trans-resveratrol (trans) for eight hours before mating. All males carried smIs42 to assist identification of zygotes. Data are means SEM; n>200 embryos per cross at 25° C. n.s., no significant difference; *P<0.05 using two-sided, unpaired t-test.
Several studies have shown that abnormal persistence of paternal mitochondria is detrimental to normal development and causes various deficiencies, including neurological and muscular defects, which lack treatment options.

Molecules are shown by their SMILES.

For the compound `Oc1ccc(/C=C/c2cc(O)cc(O)c2)cc1` [trans-resveratrol, 3,5,4′-trihydroxy-trans-stilbene], the “embryonic lethality caused by uaDf5 paternal mitochondria” value was “significantly reduced embryonic lethality”.
